Like-named read-outs stand apart in the source and are kept apart here.

In assay [1] the target is T1, human ERK-2 (Mitogen Activated Kinase 1) (Homo sapiens, UniProt P28482).
T1 construct: n-terminal 6-His fusion protein in E. coli and corresponding to aa 8-360; 6-His (N); made in house; host or cells: E. coli
Nature of the assay: ERK-2 Enzymatic Assay. It counts as biochemical. An excerpt: Table 1 contains representative data for Examples disclosed herein.

Assay [2] has as its system PMA-stimulated P90RSK(Ser380) phosphorylation in HepG2 cells. The assay can be described thus: Cellular P90RSK(Ser380) Phosphorylation Assay. It counts as cell-based. To be noted: Homo sapiens, 1.5 hours compound incubation, PMA 100 ng/mL 30 minutes, pP90RSK(Ser380) signal normalized to GAPDH, single assay or mean of multiple assays, read-out: Biological Example 2 IC50. As to the method:
Inhibition of PMA-stimulated P90RSK(Ser380) phosphorylation was determined by the following in vitro cellular mechanistic assay, which comprises incubating cells with a compound for 1.5 hours and quantifying fluorescent pP90RSK(Ser380) signal on fixed cells and normalizing to GAPDH signal.
HepG2 cells were obtained from ATCC and grown in DMEM supplemented with 10% fetal bovine serum. Cells were plated in 96-well plates at 35,000 cells/well and allowed to attach overnight at 37° C./5% CO2. Diluted compounds were then added at a final concentration of 0.5% DMSO. After 1.5 hours compound incubation, cells were stimulated with the addition of phorbol 12-myristate 13-acetate (“PMA”) at a final concentration of 100 ng/mL; the PMA stimulation was a 30-minute incubation at 37° C./5% CO2. After the 30-minute PMA stimulation, cells were washed with phosphate buffered saline (“PBS”) and fixed in 3.7% formaldehyde in PBS at room temperature for 15-20 minutes. This was followed by another wash in PBS and then permeabilization in 100% MeOH at room temperature for 10-15 minutes. Following the permeabilization incubation, cells were washed in PBS/0.05% Tween-20, followed by a block in Odyssey blocking buffer (LI-COR Biosciences) for at least 1 hour. Antibodies to phosphorylated P90RSK(Ser380) (Cell Signaling #9335, rabbit monoclonal) and GAPDH (Fitzgerald 10R-G109a, mouse monoclonal) were added to the cells and incubated overnight at 4° C. pP90RSK(Ser380) antibody was used at a 1:250 dilution; GAPDH was used at a 1:10,000 dilution. After washing with PBS/0.05% Tween-20, the cells were incubated with fluorescently-labeled secondary antibodies (Anti-rabbit-Alexa Flour680, Invitrogen Cat#A21109; Anti-mouse-IRDye800CW, Rockland Inc. Cat#610-131-121) for 1 hour. Both secondary antibodies were used at a 1:1000 dilution. Cells were then washed and analyzed for fluorescence at both wavelengths using the Odyssey Infrared Imaging System (LI-COR Biosciences). Phosphorylated P90RSK(Ser380) signal was normalized to GAPDH signal.

Where [3] appears, read: 5 nM ERK-2 enzyme, 25 μM ATP (observed Km), Omnia peptide S/T17, single assay or mean of multiple assays, read-out: Biological Example 1 IC50.
Setting [4] is: ERK-2 enzymatic assay, read-out: IC50.

T1 sequence (P28482 8-360): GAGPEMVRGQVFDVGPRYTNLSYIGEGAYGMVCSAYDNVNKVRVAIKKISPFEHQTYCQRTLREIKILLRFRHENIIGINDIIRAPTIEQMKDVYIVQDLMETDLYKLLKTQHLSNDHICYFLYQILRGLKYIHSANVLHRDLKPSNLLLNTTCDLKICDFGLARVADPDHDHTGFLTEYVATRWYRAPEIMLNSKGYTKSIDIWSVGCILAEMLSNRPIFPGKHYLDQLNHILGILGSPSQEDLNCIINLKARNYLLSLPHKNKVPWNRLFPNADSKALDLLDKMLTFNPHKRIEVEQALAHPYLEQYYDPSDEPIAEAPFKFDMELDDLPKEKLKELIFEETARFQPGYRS

`Cn1nccc1Nc1cc(-c2ccc3c(c2)nnn3Cc2ccc(Cl)cc2)ccn1` [Example 55, 4-(1-(4-chlorobenzyl)-1H-benzo[d][1,2,3]triazol-5-yl)-N-(1-methyl-1H-pyrazol-5-yl)pyridin-2-amine]: the values for the IC50 in assay [1] (setting [3]), in assay [1] (setting [4]) and in assay [2] were 0.0051 µM, less than 0.1 µM and 0.184 µM, respectively.

Consider `Cn1nccc1Nc1nccc(-c2ccc3c(c2)nnn3CCn2cccn2)n1` [Example 104, 4-(1-(2-(1H-pyrazol-1-yl)ethyl)-1H-benzo[d][1,2,3]triazol-5-yl)-N-(1-methyl-1H-pyrazol-5-yl)pyrimidin-2-amine], for which the half-maximal inhibitory concentration (IC50) was 0.0022 µM in assay [1] (setting [3]), less than 0.1 µM in assay [1] (setting [4]) and 0.0196 µM in assay [2].

Take `COc1ccc([C@@H](c2cnn(C)c2)n2nnc3cc(-c4ccnc(Nc5ccnn5C)n4)ccc32)cc1F` [Example 70]: the IC50 in assay [1] (setting [3]) is 0.0017 µM; in assay [1] (setting [4]), less than 0.1 µM; in assay [2] it was 0.0791 µM.

For the compound `Cn1nccc1Nc1nccc(-c2ccc3c(c2)nnn3CCn2cc(Cl)cn2)n1` [Example 4, 4-(1-(2-(4-chloro-1H-pyrazol-1-yl)ethyl)-1H-benzo[d][1,2,3]triazol-5-yl)-N-(1-methyl-1H-pyrazol-5-yl)pyrimidin-2-amine], the IC50 in assay [1] (setting [3]) is 0.0019 µM; in assay [1] (setting [4]), less than 0.1 µM; in assay [2] it was 0.0032 µM.

As to `COc1ccc(Cn2nnc3cc(-c4ccnc(Nc5ccnn5C)n4)cnc32)cc1F` [Example 5, 4-(3-(3-fluoro-4-methoxybenzyl)-3H-[1,2,3]triazolo[4,5-b]pyridin-6-yl)-N-(1-methyl-1H-pyrazol-5-yl)pyrimidin-2-amine], the IC50 in assay [1] (setting [3]) was 0.0025 µM; in assay [1] (setting [4]) it was less than 0.1 µM; in assay [2] it was 0.0168 µM.

The term IC50 denotes the concentration that inhibits the measured activity by half.

The values are drawn from patent US9763942B2, “Serine/threonine kinase inhibitors” (Array BioPharma Inc., priority 2013, dated 2017).
